The record followed here is ChEMBL document CHEMBL3301562, “MMV Box screening against Plasmodium falciparum protein kinases and aminoacyl tRNA synthetases”.

What all share (assay type): functional
Test [1] has as its target T1, Mitogen-activated protein kinase (Plasmodium falciparum, UniProt Q25917).
T1 sequence (Q25917 whole entry): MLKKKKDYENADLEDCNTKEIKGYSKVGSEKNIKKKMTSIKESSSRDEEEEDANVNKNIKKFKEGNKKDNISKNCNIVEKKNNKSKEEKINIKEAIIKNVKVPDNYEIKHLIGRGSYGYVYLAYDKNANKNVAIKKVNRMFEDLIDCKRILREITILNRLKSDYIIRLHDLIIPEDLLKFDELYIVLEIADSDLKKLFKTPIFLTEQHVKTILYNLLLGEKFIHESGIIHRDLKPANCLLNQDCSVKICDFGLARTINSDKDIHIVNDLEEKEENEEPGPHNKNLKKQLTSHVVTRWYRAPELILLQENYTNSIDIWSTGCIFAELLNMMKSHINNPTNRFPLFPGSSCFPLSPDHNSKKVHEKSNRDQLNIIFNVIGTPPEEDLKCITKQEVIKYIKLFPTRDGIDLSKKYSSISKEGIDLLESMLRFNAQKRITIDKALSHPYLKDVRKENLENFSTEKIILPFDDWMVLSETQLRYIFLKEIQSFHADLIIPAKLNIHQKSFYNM
As to the kind of experiment: Final concentrations were 1 uM ATP, 0.5 mM DTT, 1 mM MgCl2, 0.5 mg/mL BSA, and 10 ug/ml MAP2 in a buffer of 50 mM HEPES (pH 7.0). 0.5 mg/mL histone III-S served as the substrate (13); 100 uM AMP-PNP, an ATP analog, was used as a control inhibitor. Incubation time was 4 hours.

For test [2], the target named is T2, Calcium-dependent protein kinase 4 (Plasmodium falciparum (isolate 3D7), UniProt Q8IBS5).
T2 sequence (Q8IBS5 whole entry): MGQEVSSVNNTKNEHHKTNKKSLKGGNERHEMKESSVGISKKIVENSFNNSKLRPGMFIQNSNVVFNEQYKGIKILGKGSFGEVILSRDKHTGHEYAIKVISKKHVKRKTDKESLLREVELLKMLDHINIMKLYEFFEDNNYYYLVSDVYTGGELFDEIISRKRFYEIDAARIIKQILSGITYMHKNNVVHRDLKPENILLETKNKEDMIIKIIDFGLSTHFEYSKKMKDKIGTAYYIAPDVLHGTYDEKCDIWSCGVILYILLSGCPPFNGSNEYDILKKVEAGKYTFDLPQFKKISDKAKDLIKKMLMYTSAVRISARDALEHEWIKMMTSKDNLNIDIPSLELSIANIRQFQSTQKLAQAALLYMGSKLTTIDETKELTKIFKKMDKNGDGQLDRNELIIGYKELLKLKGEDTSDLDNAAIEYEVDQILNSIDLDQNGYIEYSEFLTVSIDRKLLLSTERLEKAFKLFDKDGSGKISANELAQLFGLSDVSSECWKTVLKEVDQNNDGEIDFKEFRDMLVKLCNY
Description: MMV: CDPK4 Protein kinase inhibition assay using recombinant PfCDPK4, syntide2 peptide substrate, ATP and KinaseGlo to measure % inhibition at 1 uM MMV box compound. (In general: Kinase-Glo reads ATP consumption through a luciferase reaction.)

The target in test [3] is Calcium-dependent protein kinase 1 (Plasmodium falciparum, UniProt P62344). Description: MMV: CDPK1 Protein kinase inhibition assay using recombinant PfCDPK1, syntide 2 peptide substrate, ATP and KinaseGlo to measure % inhibition at 1 uM MMV box compound.
Sequence of Calcium-dependent protein kinase 1 (P62344 whole entry): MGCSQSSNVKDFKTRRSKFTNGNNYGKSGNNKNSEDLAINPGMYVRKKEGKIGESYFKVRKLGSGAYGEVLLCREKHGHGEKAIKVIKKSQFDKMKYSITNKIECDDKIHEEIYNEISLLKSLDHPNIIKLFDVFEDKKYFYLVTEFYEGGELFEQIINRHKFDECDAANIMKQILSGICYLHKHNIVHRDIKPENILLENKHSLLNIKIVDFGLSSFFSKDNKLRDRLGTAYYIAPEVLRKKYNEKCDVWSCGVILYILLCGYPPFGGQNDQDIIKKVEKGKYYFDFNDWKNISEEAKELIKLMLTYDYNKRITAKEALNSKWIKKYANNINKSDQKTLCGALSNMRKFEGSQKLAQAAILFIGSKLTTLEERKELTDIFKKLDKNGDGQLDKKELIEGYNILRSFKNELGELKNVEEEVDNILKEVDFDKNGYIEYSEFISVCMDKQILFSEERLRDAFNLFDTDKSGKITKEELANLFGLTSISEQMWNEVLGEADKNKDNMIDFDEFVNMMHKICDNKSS
The target of the next test is Lysine--tRNA ligase (Plasmodium falciparum (isolate 3D7), UniProt Q8IDJ8). As to the kind of experiment: MMV: KRS recombinant Plasmodium falciparum Lysyl-tRNA-synthetase, assay with yeast tRNA, ATP, and lysine and 3 uM MMV malaria box compound, assay read out with kinase glo as % inhibition.
Sequence of Lysine--tRNA ligase (Q8IDJ8 whole entry): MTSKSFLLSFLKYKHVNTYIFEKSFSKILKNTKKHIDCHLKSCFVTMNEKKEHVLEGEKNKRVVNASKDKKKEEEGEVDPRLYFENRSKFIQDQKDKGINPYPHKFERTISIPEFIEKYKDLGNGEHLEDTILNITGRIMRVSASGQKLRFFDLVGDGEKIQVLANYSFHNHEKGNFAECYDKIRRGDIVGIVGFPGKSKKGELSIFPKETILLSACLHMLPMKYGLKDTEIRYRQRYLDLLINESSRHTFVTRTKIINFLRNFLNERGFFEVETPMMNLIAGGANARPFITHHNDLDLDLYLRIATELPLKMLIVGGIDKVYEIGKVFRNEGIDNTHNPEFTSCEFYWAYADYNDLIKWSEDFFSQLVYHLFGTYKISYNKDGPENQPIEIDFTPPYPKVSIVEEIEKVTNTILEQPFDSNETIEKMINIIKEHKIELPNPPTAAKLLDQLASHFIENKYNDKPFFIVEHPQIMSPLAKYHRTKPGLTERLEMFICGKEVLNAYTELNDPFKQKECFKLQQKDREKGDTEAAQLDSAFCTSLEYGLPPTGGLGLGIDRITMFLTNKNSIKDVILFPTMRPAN
For another test, the target named is T3, Proline--tRNA ligase (Plasmodium falciparum (isolate 3D7), UniProt Q8I5R7).
T3 sequence (Q8I5R7 whole entry): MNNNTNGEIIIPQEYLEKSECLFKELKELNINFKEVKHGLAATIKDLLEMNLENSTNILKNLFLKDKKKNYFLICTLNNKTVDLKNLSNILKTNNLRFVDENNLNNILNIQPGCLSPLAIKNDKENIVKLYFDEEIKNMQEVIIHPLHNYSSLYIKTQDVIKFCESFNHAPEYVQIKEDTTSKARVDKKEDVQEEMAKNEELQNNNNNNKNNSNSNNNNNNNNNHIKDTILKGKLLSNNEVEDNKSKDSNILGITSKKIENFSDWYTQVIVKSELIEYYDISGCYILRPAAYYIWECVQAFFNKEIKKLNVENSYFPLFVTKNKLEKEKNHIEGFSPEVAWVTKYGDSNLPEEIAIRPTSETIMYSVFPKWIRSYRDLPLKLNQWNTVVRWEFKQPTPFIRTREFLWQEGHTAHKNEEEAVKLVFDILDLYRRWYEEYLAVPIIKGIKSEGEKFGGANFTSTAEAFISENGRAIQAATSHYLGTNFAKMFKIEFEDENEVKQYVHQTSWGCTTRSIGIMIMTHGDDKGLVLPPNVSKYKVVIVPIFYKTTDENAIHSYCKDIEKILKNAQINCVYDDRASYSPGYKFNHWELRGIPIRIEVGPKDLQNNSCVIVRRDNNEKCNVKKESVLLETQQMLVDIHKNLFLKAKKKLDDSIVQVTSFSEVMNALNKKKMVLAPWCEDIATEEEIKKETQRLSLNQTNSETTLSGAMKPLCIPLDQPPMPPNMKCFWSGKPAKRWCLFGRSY
As to the kind of experiment: MMV: ProRS recombinant Plasmodium falciparum Prolyl-tRNA-synthetase, assay with yeast tRNA, ATP, and proline and 3 uM MMV malaria box compound, assay read out with kinase glo as % inhibition.

Test [4] addresses T4, Cdk-related protein kinase 6 (Plasmodium falciparum, UniProt O77239).
T4 sequence (O77239 whole entry): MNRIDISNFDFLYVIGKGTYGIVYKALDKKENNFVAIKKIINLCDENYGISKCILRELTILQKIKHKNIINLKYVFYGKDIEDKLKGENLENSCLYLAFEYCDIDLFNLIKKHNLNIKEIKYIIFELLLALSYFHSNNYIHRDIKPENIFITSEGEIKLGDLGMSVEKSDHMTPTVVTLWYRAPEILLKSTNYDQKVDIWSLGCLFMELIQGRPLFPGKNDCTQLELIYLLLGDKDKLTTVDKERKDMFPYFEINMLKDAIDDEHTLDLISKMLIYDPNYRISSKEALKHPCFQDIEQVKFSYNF
As to the kind of experiment: Final concentrations were 1.5 uM ATP, 5 mM MnCl2, and 15 ug/ml PK6 in a buffer of 100 mM Tris-HCl (pH 7.5). 50 ug/mL MBP was provided as the substrate; 10 uM staurosporine was used as a control inhibitor. Incubation time was 3 hours and 40 minutes.The catalytic activity of each kinase was considered proportional to ATP consumed, as determined from measurements of residual [ATP] with the luciferase-based reagent Kinase-Glo (Promega) following incubation. Luminescence (proportional to residual [ATP]) was measured on the plate readers FLx800 (BioTek Instruments, Winooski, VT, USA) and MicroBeta2.

Test [5] has as its target T5, Putative uncharacterized protein pk7 (Plasmodium falciparum, UniProt O96214).
T5 sequence (O96214 whole entry): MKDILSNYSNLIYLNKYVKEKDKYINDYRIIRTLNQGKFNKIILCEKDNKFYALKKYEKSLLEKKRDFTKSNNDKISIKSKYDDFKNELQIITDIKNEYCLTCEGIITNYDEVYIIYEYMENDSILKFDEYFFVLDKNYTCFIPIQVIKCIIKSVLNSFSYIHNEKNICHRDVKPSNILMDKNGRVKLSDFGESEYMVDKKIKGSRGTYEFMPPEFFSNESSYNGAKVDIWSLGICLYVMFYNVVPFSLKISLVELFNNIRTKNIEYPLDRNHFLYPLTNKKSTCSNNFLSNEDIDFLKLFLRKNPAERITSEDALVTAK
Description: Final concentrations were 1 uM ATP, 2 mM DTT, 20 mM MgCl2, 2 mM MnCl2, 0.01% BSA, and 6 ug/ml PK7, in a buffer of 20 mM Tris-HCl (pH 7.5). The enzyme itself was the only substrate present (since autophosphorylation occurs); 100 uM 1NA-PP1 was used as a control inhibitor. Incubation time was 3 hours.

Broadly, the IC50 is the concentration needed to halve the response being measured. In the case of `COc1ccc(C2c3ccc4ccccc4c3Oc3ncn(CCCN(C)C)c(=N)c32)cc1` (stereo not drawn), the IC50 in test [1] is more than 1000 nM; in test [2], more than 1000 nM; in test [3], more than 1000 nM; on Lysine--tRNA ligase, more than 2500 nM; at Proline--tRNA ligase, more than 2500 nM; in test [4], more than 1000 nM. This compound yielded an IC50 in test [5] of more than 1000 nM.
In the case of `CCOC(=O)c1c(C)n(-c2ccccc2)c2ccc(OC(=O)c3cc(OC)c(OC)c(OC)c3)cc12`, the IC50 in test [1] is more than 1000 nM; in test [2], more than 1000 nM; in test [3], more than 1000 nM; at Lysine--tRNA ligase, more than 2500 nM; on Proline--tRNA ligase, more than 2500 nM; in test [4] it was more than 1000 nM. The compound also came in with an IC50 in test [5] of more than 1000 nM.
As for `COc1ccc(C2c3ccc4ccccc4c3Oc3ncn(CCCn4ccnc4)c(=N)c32)cc1OC` (stereo not drawn), the IC50 in test [1] was more than 1000 nM; in test [2] it was more than 1000 nM; in test [3], more than 1000 nM; on Lysine--tRNA ligase it was more than 2500 nM; on Proline--tRNA ligase, more than 2500 nM; in test [4], more than 1000 nM. The IC50 in test [5] is more than 1000 nM.
Turning to `CN(N=O)C1=C(NC2CCCCC2)C(=O)c2ccccc2C1=O`, the IC50 in test [1] is more than 1000 nM; in test [2] it was more than 1000 nM; in test [3], more than 1000 nM; on Lysine--tRNA ligase, more than 2500 nM; on Proline--tRNA ligase, more than 2500 nM; in test [4] it was more than 1000 nM. Also, in test [5], the IC50 is more than 1000 nM.
As for `Cc1ccc(C(=O)c2oc3ccc4c(C)cc(=O)oc4c3c2C)cc1`, the IC50 is more than 1000 nM in test [1]; more than 1000 nM in test [2]; more than 1000 nM in test [3]; more than 2500 nM at Lysine--tRNA ligase; more than 2500 nM at Proline--tRNA ligase; more than 1000 nM in test [4]. The compound also had an IC50 in test [5] of more than 1000 nM.
Take `CC(Oc1ccc(NC(=O)c2cccs2)cc1)C(=O)c1ccc(Cl)cc1` (stereo not drawn): the IC50 in test [1] is more than 1000 nM; in test [2], more than 1000 nM; in test [3], more than 1000 nM; at Lysine--tRNA ligase it was more than 2500 nM; at Proline--tRNA ligase, more than 2500 nM; in test [4] it was more than 1000 nM. This compound also returned an IC50 in test [5] of more than 1000 nM.
Take `O=C(NC1CCN(Cc2ccccc2)CC1)c1cc(C(=O)NC2CCN(Cc3ccccc3)CC2)cc(C(=O)NC2CCN(Cc3ccccc3)CC2)c1`: the IC50 in test [1] is more than 1000 nM; in test [2] it was more than 1000 nM; in test [3] it was more than 1000 nM; on Lysine--tRNA ligase, more than 2500 nM; at Proline--tRNA ligase, more than 2500 nM; in test [4], more than 1000 nM. This compound yielded an IC50 in test [5] of more than 1000 nM.
Consider `COc1ccc(-c2cn3c(C(=O)Nc4ccccc4Cl)c(-c4ccccc4)c4c3n2CCCC4)cc1`, for which the IC50 in test [1] is more than 1000 nM; in test [2] it was more than 1000 nM; in test [3], more than 1000 nM; on Lysine--tRNA ligase, more than 2500 nM; on Proline--tRNA ligase, more than 2500 nM; in test [4], more than 1000 nM. In test [5], this compound showed an IC50 of more than 1000 nM.
On to `CCN(CC)CCNc1ccnc2cc3ccccc3cc12`, for which the half-inhibitory concentration (IC50) in test [1] was more than 1000 nM; in test [2], more than 1000 nM; in test [3], more than 1000 nM; at Lysine--tRNA ligase it was more than 2500 nM; on Proline--tRNA ligase it was more than 2500 nM; in test [4], more than 1000 nM. Besides, the IC50 in test [5] is more than 1000 nM.
In the case of `CCOc1cc2c(cc1OCC)C(c1cc(Cl)ccc1O)NCC2` (stereo not drawn), the IC50 in test [1] is more than 1000 nM; in test [2], more than 1000 nM; in test [3], more than 1000 nM; at Lysine--tRNA ligase, more than 2500 nM; at Proline--tRNA ligase it was more than 2500 nM; in test [4] it was more than 1000 nM. This compound registered an IC50 in test [5] of more than 1000 nM.
On to `c1ccc(CNc2nc(Nc3ccccc3)nc3ccccc23)cc1`, for which the IC50 in test [1] was more than 1000 nM; in test [2] it was more than 1000 nM; in test [3] it was more than 1000 nM; on Lysine--tRNA ligase, more than 2500 nM; on Proline--tRNA ligase it was more than 2500 nM; in test [4], more than 1000 nM. Besides, in test [5], the IC50 was more than 1000 nM.
Turning to `COc1ccc2sc(N(Cc3cccnc3)C(=O)c3ccc(C#N)cc3)nc2c1`, the IC50 was more than 1000 nM in test [1]; more than 1000 nM in test [2]; more than 1000 nM in test [3]; more than 2500 nM at Lysine--tRNA ligase; more than 2500 nM on Proline--tRNA ligase; more than 1000 nM in test [4]. The compound further returned an IC50 in test [5] of more than 1000 nM.
Take `CC1CC2=C(CC1CNCCCN(C)C)C(C)(C)CCC2` (stereo not drawn): the IC50 in test [1] was more than 1000 nM; in test [2] it was more than 1000 nM; in test [3] it was more than 1000 nM; at Lysine--tRNA ligase, more than 2500 nM; at Proline--tRNA ligase, more than 2500 nM; in test [4], more than 1000 nM. Moreover, the IC50 in test [5] is more than 1000 nM.
For the compound `CCCCc1c(CCC)c(=N)c2ccccc2n1C`, the IC50 in test [1] was more than 1000 nM; in test [2], more than 1000 nM; in test [3], more than 1000 nM; on Lysine--tRNA ligase it was more than 2500 nM; at Proline--tRNA ligase, more than 2500 nM; in test [4] it was more than 1000 nM. Besides, the half-inhibitory concentration (IC50) in test [5] was more than 1000 nM.
